From patent publication US12214092B2, “Systems and methods for treating biological fluids” (Cerus Corporation, priority 2017, dated 2025)
Values joined by “and” are separate entries in the source; they are usually repeats but may differ in a detail not shown here. Identical values can stand only once. Like-named read-outs stand apart in the source and are kept apart here.

Tests used:
[1] = Amotosalen concentration post-UVA in FCV-spiked platelets, HPLC; format: physicochemical
[2] = Photochemical conversion of S-59 (150 μM) and photoproduct profile in plasma, PAS or PAS+plasma units, HPLC; format: physicochemical
[3] = S-59 and photoproducts post-treatment in platelets in PAS/plasma, 150 μM amotosalen, liquid chromatography mass spectrometry; format: physicochemical
Description: As mass spec extinction coefficients for photoproducts were assumed identical as S-59 extinction coefficients, only relative difference in concentrations (μM) between samples are compared in the following Table 9b, rather than absolute concentrations.

[4] = system: vesicular stomatitis virus (VSV); format: cell-based; conditions: for Log Inact. / Post-Txt Titer / Pre-Txt Titer: 30 μM, listed as amotosalen; for Log inactivation / Post-treatment titer / Pre-treatment titer: 150 μM
[5] = 65/35 PAS+Plasma, 340 nm LED ~3.6 J/cm^2
[6] = 65/35 PAS+Plasma, 365 nm LED ~3.6 J/cm^2

SMILES: Cc1oc2c(C)c3oc(=O)cc(C)c3cc2c1COCCN [S-59, 3-(2-aminoethoxymethyl)-2,5,9-trimethylfuro[3,2-g]chromen-7-one]
- S-59 post-UVA concentration ([1]; 15 μM, 4 hr incubation, 340 nm ~3 J/cm^2): 0.6 µM
- S-59 post-UVA concentration ([1]; 15 μM, 8 hr incubation, 340 nm ~3 J/cm^2): 0.6 µM
- S-59 post-UVA concentration ([1]; 15 μM, 8 hr, 340 nm ~3 J/cm^2 Top Only): <1 µM
- S-59 post-UVA concentration ([1]; 15 μM, 8 hr, 340 nm ~3 J/cm^2 Top/Bottom): <1 µM
- S-59 post-UVA concentration ([1]; 15 μM, 24 hr incubation, 340 nm ~3 J/cm^2): 0.6 µM
- S-59 post-UVA concentration ([1]; 15 μM, 24 hr, 340 nm ~3 J/cm^2 Top Only): <1 µM
- S-59 post-UVA concentration ([1]; 15 μM, 24 hr, 340 nm ~3 J/cm^2 Top/Bottom): <1 µM
- S-59 post-UVA concentration ([1]; 30 μM, 4 hr incubation, 340 nm ~3 J/cm^2): 0.8 µM
- S-59 post-UVA concentration ([1]; 30 μM, 8 hr incubation, 340 nm ~3 J/cm^2): 0.9 µM
- S-59 post-UVA concentration ([1]; 30 μM, 8 hr, 340 nm ~3 J/cm^2 Top Only): <1 µM
- S-59 post-UVA concentration ([1]; 30 μM, 8 hr, 340 nm ~3 J/cm^2 Top/Bottom): <1 µM
- S-59 post-UVA concentration ([1]; 30 μM, 24 hr incubation, 340 nm ~3 J/cm^2): 0.8 µM
- S-59 post-UVA concentration ([1]; 30 μM, 24 hr, 340 nm ~3 J/cm^2 Top Only): <1 µM
- S-59 post-UVA concentration ([1]; 30 μM, 24 hr, 340 nm ~3 J/cm^2 Top/Bottom): <1 µM
- S-59 post-UVA concentration ([1]; 90 μM, 4 hr incubation, 340 nm ~3 J/cm^2): 3.8 µM
- S-59 post-UVA concentration ([1]; 90 μM, 8 hr incubation, 340 nm ~3 J/cm^2): 0.9 µM
- S-59 post-UVA concentration ([1]; 90 μM, 24 hr incubation, 340 nm ~3 J/cm^2): 3.3 µM
- S-59 post-UVA concentration ([1]; 150 μM, 0 hr incubation, 340 nm, more than twice ~3 J/cm^2): 2.1 µM
- S-59 post-UVA concentration ([1]; 150 μM, 0 hr, 340 nm Top Only): 10.8 µM
- S-59 post-UVA concentration ([1]; 150 μM, 0 hr, 340 nm Top/Bottom): 7.7 µM
- % of input S-59 remaining [2, 5]: 9.1%
- Post-illumination HPLC area counts [2, 5]: 1249
- % of input S-59 remaining [2, 6]: 46.2%
- Post-illumination HPLC area counts [2, 6]: 5889
- % of input S-59 remaining ([2]; PAS, 340 nm LED ~3 J/cm^2): 13.4%
- Post-illumination HPLC area counts ([2]; PAS, 340 nm LED ~3 J/cm^2): 1436
- % of input S-59 remaining ([2]; PAS, 365 nm LED ~3 J/cm^2): 36.8%
- Post-illumination HPLC area counts ([2]; PAS, 365 nm LED ~3 J/cm^2): 4118
- % of input S-59 remaining ([2]; PAS, INT100 ~6.4 J/cm^2): 26.2%
- Post-illumination HPLC area counts ([2]; PAS, INT100 ~6.4 J/cm^2): 2905
- % of input S-59 remaining ([2]; Plasma, 340 nm LED ~6.4 J/cm^2): 33.1%
- Post-illumination HPLC area counts ([2]; Plasma, 340 nm LED ~6.4 J/cm^2): 4957
- % of input S-59 remaining ([2]; Plasma, 365 nm LED ~6.4 J/cm^2): 66.8%
- Post-illumination HPLC area counts ([2]; Plasma, 365 nm LED ~6.4 J/cm^2): 9675
- % of input S-59 remaining ([2]; Plasma, INT100 ~6.4 J/cm^2): 60.5%
- Post-illumination HPLC area counts ([2]; Plasma, INT100 ~6.4 J/cm^2): 8513
- Post-illumination concentration (relative, LC-MS) ([3]; 340 nm, ~3.6 J/cm^2): 21.3 µM
- Post-illumination concentration (relative, LC-MS) ([3]; 340 nm, ~7.2 J/cm^2): 4.8 µM
- Post-illumination concentration (relative, LC-MS) ([3]; 340 nm, ~10.8 J/cm^2): 2.5 µM
- Post-illumination concentration (relative, LC-MS) ([3]; INT100, ~3.6 J/cm^2): 37.0 µM
- Post-illumination concentration (relative, LC-MS) ([3]; INT100, ~7.2 J/cm^2): 11.6 µM
- Post-illumination concentration (relative, LC-MS) ([3]; INT100, ~10.8 J/cm^2): 12.0 µM
- Log Inact. ([4]; 220 mL, 340 nm LED ~3.0 J/cm^2): 2.28 log and 2.39 log
- Post-Txt Titer ([4]; 220 mL, 340 nm LED ~3.0 J/cm^2): 4.32 log10 and 2.85 log10
- Log Inact. ([4]; 220 mL, INT 100 ~3.0 J/cm^2): 2.02 log and 1.97 log
- Post-Txt Titer ([4]; 220 mL, INT 100 ~3.0 J/cm^2): 4.58 log10 and 3.27 log10
- Pre-Txt Titer ([4]; 220 mL): 6.60 log10 and 5.24 log10
- Log Inact. ([4]; 350 mL, 340 nm LED ~3.0 J/cm^2): 2.34 log and 2.21 log
- Post-Txt Titer ([4]; 350 mL, 340 nm LED ~3.0 J/cm^2): 4.26 log10 and 3.03 log10
- Log Inact. ([4]; 350 mL, INT 100 ~3.0 J/cm^2): 1.76 log and 1.66 log
- Post-Txt Titer ([4]; 350 mL, INT 100 ~3.0 J/cm^2): 4.93 log10 and 3.58 log10
- Pre-Txt Titer ([4]; 350 mL): 6.60 log10 and 5.24 log10
- Log inactivation ([4]; 340 nm LED ~6.4 J/cm^2): 4.6 log
- Post-treatment titer ([4]; 340 nm LED ~6.4 J/cm^2): 1.7 log PFU
- Pre-treatment titer ([4]; 340 nm unit): 6.3 log PFU
- Log inactivation ([4]; 365 nm LED ~6.4 J/cm^2): 3.0 log
- Post-treatment titer ([4]; 365 nm LED ~6.4 J/cm^2): 3.3 log PFU
- Pre-treatment titer ([4]; 365 nm unit): 6.3 log PFU
- Pre-treatment titer ([4]; INT-100 unit): 6.3 log PFU
- Log inactivation ([4]; INT-100 ~6.4 J/cm^2): 3.4 log
